In this experiment the target is T1, human calcium-sensing receptor (CaSR) (Homo sapiens, UniProt P41180).
T1 construct: expressed in transfected cells
T1 sequence (P41180 20-1078): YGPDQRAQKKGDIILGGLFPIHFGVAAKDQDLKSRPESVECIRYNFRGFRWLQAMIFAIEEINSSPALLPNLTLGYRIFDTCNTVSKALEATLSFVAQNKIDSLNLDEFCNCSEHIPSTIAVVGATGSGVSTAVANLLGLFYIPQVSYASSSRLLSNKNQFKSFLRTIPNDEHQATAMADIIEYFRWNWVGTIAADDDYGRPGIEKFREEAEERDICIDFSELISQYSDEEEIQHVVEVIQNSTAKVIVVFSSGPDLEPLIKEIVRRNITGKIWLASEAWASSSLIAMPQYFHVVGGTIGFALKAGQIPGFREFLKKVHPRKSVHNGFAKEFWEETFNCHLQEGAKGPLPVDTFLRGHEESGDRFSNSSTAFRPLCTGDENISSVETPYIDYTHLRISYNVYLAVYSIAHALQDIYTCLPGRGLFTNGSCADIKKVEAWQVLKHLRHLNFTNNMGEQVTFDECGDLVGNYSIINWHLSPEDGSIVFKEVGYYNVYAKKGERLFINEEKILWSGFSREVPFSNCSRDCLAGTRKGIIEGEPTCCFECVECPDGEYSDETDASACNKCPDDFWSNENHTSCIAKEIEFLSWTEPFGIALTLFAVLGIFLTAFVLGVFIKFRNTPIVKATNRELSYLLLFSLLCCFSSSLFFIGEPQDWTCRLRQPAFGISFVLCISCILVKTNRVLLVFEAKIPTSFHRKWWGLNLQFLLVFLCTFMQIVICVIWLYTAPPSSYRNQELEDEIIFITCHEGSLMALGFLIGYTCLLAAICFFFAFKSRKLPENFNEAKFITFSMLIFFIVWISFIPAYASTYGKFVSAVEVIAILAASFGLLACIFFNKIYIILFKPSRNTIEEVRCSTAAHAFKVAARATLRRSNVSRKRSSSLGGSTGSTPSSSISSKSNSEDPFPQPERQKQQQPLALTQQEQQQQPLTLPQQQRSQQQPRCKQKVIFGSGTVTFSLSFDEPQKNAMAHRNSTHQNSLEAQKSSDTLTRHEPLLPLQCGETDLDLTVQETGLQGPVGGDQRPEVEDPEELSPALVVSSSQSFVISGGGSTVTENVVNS
Put plainly: intracellular Ca assay, CaSR antagonist activity in HEK293/hCaSR cells. In kind it is cell-based. As to conditions: Fura2-AM, inhibition of response to calcium chloride ligand solution, read-out: IC50 values according to the intracellular Ca assay (CaSR antagonist activity). In outline: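 HEK293/hCaSR cells were loaded with Fura2-AM and pre-incubated with compound for 160 s at 37° C in HEPES buffer (pH 7.4, 0.8 mM CaCl2), then challenged with calcium ligand solution. Read-out was the peak 340/380 nm fluorescence ratio; inhibition is relative to no-compound (0%) and no-calcium-ligand (100%) controls.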

The IC50 is the point on the concentration scale where inhibition reaches its midpoint.

`CCc1cc(-c2ccc(CCC(=O)O)cc2Cl)ccc1S(=O)(=O)N(C)C[C@H](O)CNC(C)(C)CC1Cc2ccccc2C1` [Exp. 5-16, (R)-3-(2-chloro-4′-(N-(3-(1-(2,3-dihydro-1H-inden-2-yl)-2-methylpropan-2-ylamino)-2-hydroxypropyl)-N-methylsulfamoyl)-3′-ethylbiphenyl-4-yl)propionic acid]: the IC50 is at most 0.3 µM.

Turning to `CN(C[C@H](O)CNC(C)(C)CC1Cc2ccccc2C1)S(=O)(=O)c1ccc(-c2cc(CCC(=O)O)ccc2F)cc1C(F)(F)F` [Exp. 5-18, (R)-3-(4′-(N-(3-(1-(2,3-dihydro-1H-inden-2-yl)-2-methylpropan-2-ylamino)-2-hydroxypropyl)-N-methylsulfamoyl)-6-fluoro-3′-(trifluoromethyl)biphenyl-3-yl)propionic acid], the IC50 is at most 0.3 µM.

Turning to `CN(C[C@H](O)CNC(C)(C)Cc1ccc2ccccc2c1)S(=O)(=O)c1cccc(-c2cc(F)cc(C(=O)O)c2)c1` [Exp. 3-23, (R)-5-fluoro-3′-(N-(2-hydroxy-3-(2-methyl-1-(naphthalen-2-yl)propan-2-ylamino)propyl)-N-methylsulfamoyl)biphenyl-3-carboxylic acid], the IC50 is at most 0.3 µM.

On to `CN(C[C@H](O)CNC(C)(C)Cc1ccc2ccccc2c1)S(=O)(=O)c1cccc(-c2ccc(CCC(=O)O)cc2)c1` [Exp. 3-15, (R)-3-(3′-(N-(2-hydroxy-3-(2-methyl-1-(naphthalen-2-yl)propan-2-ylamino)propyl)-N-methylsulfamoyl)biphenyl-4-yl)propionic acid], for which the IC50 fell in the range of 0.3 to 1 µM.

`CN(C[C@H](O)CNC(C)(C)Cc1ccc2ccccc2c1)S(=O)(=O)Cc1ccccc1-c1cccc(C=CC(=O)O)c1` [Exp. 3-84, (R)-3-(2′-((N-(2-hydroxy-3-(2-methyl-1-(naphthalen-2-yl)propan-2-ylamino)propyl)-N-methylsulfamoyl)methyl)biphenyl-3-yl)acrylic acid]: the IC50 lay within 1 to 3 µM.

For `CN(C[C@H](O)CNC(C)(C)Cc1ccc2ccccc2c1)S(=O)(=O)c1ccc(-c2cc(C(=O)O)cc([N+](=O)[O-])c2)cc1` [Exp. 3-40, (R)-4′-(N-(2-hydroxy-3-(2-methyl-1-(naphthalen-2-yl)propan-2-ylamino)propyl)-N-methylsulfamoyl)-5-nitrobiphenyl-3-carboxylic acid], the IC50 was 0.3 to 1 µM.

`CN(C[C@H](O)CNC(C)(C)Cc1ccc2ccccc2c1)S(=O)(=O)c1cccc(-c2ccc(C(=O)O)cc2)c1` [Exp. 3-6, (R)-3′-(N-(2-hydroxy-3-(2-methyl-1-(naphthalen-2-yl)propan-2-ylamino)propyl)-N-methylsulfamoyl)biphenyl-4-carboxylic acid]: the IC50 lay within 0.3 to 1 µM.

As to `CN(C[C@H](O)CNC(C)(C)CC1Cc2ccccc2C1)S(=O)(=O)c1cccc(-c2ccc(C(=O)O)cc2F)c1` [Exp. 3-55, (R)-3′-(N-(3-(1-(2,3-dihydro-1H-inden-2-yl)-2-methylpropan-2-ylamino)-2-hydroxypropyl)-N-methylsulfamoyl)-2-fluorobiphenyl-4-carboxylic acid], the IC50 was at most 0.3 µM.

Take `CN(C[C@H](O)CNC(C)(C)Cc1ccc2ccccc2c1)S(=O)(=O)c1cccc(-c2ccc(C(=O)NCCC(=O)O)cc2)c1` [Exp. 3-27, (R)-3-(3′-(N-(2-hydroxy-3-(2-methyl-1-(naphthalen-2-yl)propan-2-ylamino)propyl)-N-methylsulfamoyl)biphenyl-4-ylcarboxamide)propionic acid]: the IC50 fell in the range of 0.3 to 1 µM.

As to `CN(C[C@H](O)CNC(C)(C)CCCc1ccccc1)S(=O)(=O)c1cc(-c2cccc(CCC(=O)O)c2)cc(C(F)(F)F)c1` [Exp. 9-55, (R)-3-(3′-(N-(2-hydroxy-3-(2-methyl-5-phenylpentan-2-ylamino)propyl)-N-methylsulfamoyl)-5′-(trifluoromethyl)biphenyl-3-yl)propionic acid], the IC50 is at most 0.3 µM.

Regarding `CN(C[C@H](O)CNC(C)(C)CC1Cc2ccccc2C1)S(=O)(=O)c1cc(-c2cccc(CC(=O)O)c2)cc(C(F)(F)F)c1` [Exp. 3-154, (R)-2-(3′-(N-(3-(1-(2,3-dihydro-1H-inden-2-yl)-2-methylpropan-2-ylamino)-2-hydroxypropyl)-N-methylsulfamoyl)-5′-(trifluoromethyl)biphenyl-3-yl)acetic acid], the IC50 is at most 0.3 µM.

For the molecule `CN(C[C@H](O)CNC(C)(C)Cc1ccc2ccccc2c1)S(=O)(=O)c1cccc(-c2ccc(C(=O)O)cc2F)c1` [Exp. 3-12, (R)-2-fluoro-3′-(N-(2-hydroxy-3-(2-methyl-1-(naphthalen-2-yl)propan-2-ylamino)propyl)-N-methylsulfamoyl)biphenyl-4-carboxylic acid], the IC50 is 0.3 to 1 µM.

For the molecule `CN(C[C@H](O)CNC(C)(C)CC1Cc2ccccc2C1)S(=O)(=O)c1cccc(-c2ccc(OCC(=O)O)c(Cl)c2)c1` [Exp. 3-223, (R)-2-(3-chloro-3′-(N-(3-(1-(2,3-dihydro-1H-inden-2-yl)-2-methylpropan-2-ylamino)-2-hydroxypropyl)-N-methylsulfamoyl)biphenyl-4-yloxy)acetic acid], the IC50 is at most 0.3 µM.

Take `CCc1cc(-c2cccc(CCC(=O)O)c2)ccc1S(=O)(=O)N(C)C[C@H](O)CNC(C)(C)CCCc1ccccc1` [Exp. 3-187, (R)-3-(3′-ethyl-4′-(N-(2-hydroxy-3-(2-methyl-5-phenylpentan-2-ylamino)propyl)-N-methylsulfamoyl)biphenyl-3-yl)propionic acid]: the IC50 is at most 0.3 µM.

In the case of `CN(C[C@H](O)CNC(C)(C)CC1Cc2ccccc2C1)S(=O)(=O)c1ccc(-c2cc(CCC(=O)O)ccc2F)c(F)c1` [Exp. 5-23, (R)-3-(4′-(N-(3-(1-(2,3-dihydro-1H-inden-2-yl)-2-methylpropan-2-ylamino)-2-hydroxypropyl)-N-methylsulfamoyl)-2′,6-difluorobiphenyl-3-yl)propionic acid], the IC50 is at most 0.3 µM.

Consider `CN(C[C@H](O)CNC(C)(C)CCCc1ccsc1)S(=O)(=O)c1cc(-c2ccc(CCC(=O)O)cc2)cc(C(F)(F)F)c1` [Exp. 9-75, (R)-3-(3′-(N-(2-hydroxy-3-(2-methyl-5-(thiophen-3-yl)pentan-2-ylamino)propyl)-N-methylsulfamoyl)-5′-(trifluoromethyl)biphenyl-4-yl)propionic acid], for which the IC50 was at most 0.3 µM.

In the case of `CCc1cc(-c2cc(CCC(=O)O)ccc2F)ccc1S(=O)(=O)N(C)C[C@H](O)CNC(C)(C)CC1Cc2ccccc2C1` [Exp. 5-21, (R)-3-(4′-(N-(3-(1-(2,3-dihydro-1H-inden-2-yl)-2-methylpropan-2-ylamino)-2-hydroxypropyl)-N-methylsulfamoyl)-3′-ethyl-6-fluorobiphenyl-3-yl)propionic acid], the IC50 is at most 0.3 µM.

Regarding `CN(C[C@H](O)CNC(C)(C)Cc1ccc2ccccc2c1)S(=O)(=O)c1cccc(-c2cc(C(=O)O)cc([N+](=O)[O-])c2)c1` [Exp. 3-18, (R)-3′-(N-(2-hydroxy-3-(2-methyl-1-(naphthalen-2-yl)propan-2-ylamino)propyl)-N-methylsulfamoyl)-5-nitrobiphenyl-3-carboxylic acid], the IC50 is 1 to 3 µM.

Turning to `CN(C[C@H](O)CNC(C)(C)Cc1ccc2ccccc2c1)S(=O)(=O)c1ccc(-c2ccc(C(=O)O)cc2F)cc1` [Exp. 3-35, (R)-2-fluoro-4′-(N-(2-hydroxy-3-(2-methyl-1-(naphthalen-2-yl)propan-2-ylamino)propyl)-N-methylsulfamoyl)biphenyl-4-carboxylic acid], the IC50 was in the range of 0.3 to 1 µM.

Regarding `CN(C[C@H](O)CNC(C)(C)CCCc1ccccc1)S(=O)(=O)c1cc(F)cc(CCC(=O)O)c1Cl` [Exp. 9-173, (R)-3-(2-chloro-5-fluoro-3-(N-(2-hydroxy-3-(2-methyl-5-phenylpentan-2-ylamino)propyl)-N-methylsulfamoyl)phenyl)propionic acid], the IC50 was at most 0.3 µM.

Turning to `CN(C[C@H](O)CNC(C)(C)Cc1ccc2ccccc2c1)S(=O)(=O)c1cccc(-c2cc(F)c(C(=O)O)c(F)c2)c1` [Exp. 3-25, (R)-3,5-difluoro-3′-(N-(2-hydroxy-3-(2-methyl-1-(naphthalen-2-yl)propan-2-ylamino)propyl)-N-methylsulfamoyl)biphenyl-4-carboxylic acid], the IC50 is 0.3 to 1 µM.
